Reference: patent US10758534B2 (Vertex Pharmaceuticals Incorporated, priority 2014, dated 2020)

Molecular target: T1, F508del (Homo sapiens, UniProt P13569, DEL508-508)
T1 construct: expressed in transfected cells
Assay: Protocol 1: membrane potential optical assay (FLIPR III, voltage sensing dye), identification of potentiator compounds
Format: cell-based
Details: Table 3, compounds of Table 1
How it was run: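 Gating potentiation is read as a membrane-potential fluorescence change (FLIPR III, voltage-sensing dye) after one forskolin addition under a Cl− gradient, with gluconate replacing chloride, pH 7.4. Cells are F508del-expressing NIH3T3 mouse fibroblasts held 24 h at 27 °C and exposed to compound before dye loading.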

T1 sequence (P13569 with tags, fused parts or gaps DEL508-508): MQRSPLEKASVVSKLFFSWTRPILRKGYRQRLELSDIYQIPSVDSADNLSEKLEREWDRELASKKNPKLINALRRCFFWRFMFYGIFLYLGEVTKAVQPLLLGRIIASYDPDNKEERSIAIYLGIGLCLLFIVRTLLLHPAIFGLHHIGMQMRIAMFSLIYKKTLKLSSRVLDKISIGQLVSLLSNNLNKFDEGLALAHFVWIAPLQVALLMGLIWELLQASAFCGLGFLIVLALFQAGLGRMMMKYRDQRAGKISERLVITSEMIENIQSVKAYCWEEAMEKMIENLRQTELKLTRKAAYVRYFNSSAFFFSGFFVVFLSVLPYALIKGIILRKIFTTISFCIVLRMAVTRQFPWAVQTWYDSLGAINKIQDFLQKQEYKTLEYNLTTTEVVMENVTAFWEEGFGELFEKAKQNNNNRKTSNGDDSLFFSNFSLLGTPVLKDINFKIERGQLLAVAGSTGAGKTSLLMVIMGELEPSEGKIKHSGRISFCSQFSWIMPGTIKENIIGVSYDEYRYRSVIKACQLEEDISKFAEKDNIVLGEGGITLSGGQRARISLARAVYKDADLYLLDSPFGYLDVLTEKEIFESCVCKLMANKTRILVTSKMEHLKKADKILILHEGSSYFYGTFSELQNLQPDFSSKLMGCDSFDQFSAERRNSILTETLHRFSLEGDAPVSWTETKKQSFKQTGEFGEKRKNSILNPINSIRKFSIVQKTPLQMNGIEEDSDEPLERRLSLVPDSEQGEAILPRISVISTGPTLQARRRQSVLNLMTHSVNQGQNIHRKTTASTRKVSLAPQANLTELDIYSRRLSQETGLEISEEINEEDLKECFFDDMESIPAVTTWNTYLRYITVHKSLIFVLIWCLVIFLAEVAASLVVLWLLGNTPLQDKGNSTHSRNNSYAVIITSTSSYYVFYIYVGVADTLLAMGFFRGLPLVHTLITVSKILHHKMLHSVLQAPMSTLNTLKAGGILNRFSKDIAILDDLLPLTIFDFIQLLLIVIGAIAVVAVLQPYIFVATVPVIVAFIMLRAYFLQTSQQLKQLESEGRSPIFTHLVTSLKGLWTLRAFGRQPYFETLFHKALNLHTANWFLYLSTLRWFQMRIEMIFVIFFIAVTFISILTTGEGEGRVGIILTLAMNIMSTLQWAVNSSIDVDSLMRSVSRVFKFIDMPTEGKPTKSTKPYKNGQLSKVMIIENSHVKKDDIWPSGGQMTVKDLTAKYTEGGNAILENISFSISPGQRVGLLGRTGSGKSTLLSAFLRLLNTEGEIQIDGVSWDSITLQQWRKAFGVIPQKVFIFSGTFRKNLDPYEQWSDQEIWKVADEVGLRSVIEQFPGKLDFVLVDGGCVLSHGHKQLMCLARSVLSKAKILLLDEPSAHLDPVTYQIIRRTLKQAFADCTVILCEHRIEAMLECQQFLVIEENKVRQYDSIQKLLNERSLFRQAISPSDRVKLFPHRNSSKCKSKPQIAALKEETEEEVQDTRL

**Q.** For `C[C@@H]1CN(c2nc(C3CC(C)(C)CCC3O)ccc2C(=O)NS(=O)(=O)c2cccc(N)n2)C(C)(C)C1` (stereo partly drawn) [Compound 1439, N-[(6-amino-2-pyridyl)sulfonyl]-6-(2-hydroxy-5,5-dimethyl-cyclohexyl)-2-[(4S)-2,2,4-trimethylpyrrolidin-1-yl]pyridine-3-carboxamide], which EC30 is on record?
**A.** ++ (“++” means between 3 uM and 10 uM)

**Q.** With `CC(C)COc1cc(F)cc(-c2ccc(C(=O)NS(=O)(=O)c3cccc(N)n3)c(O[C@@H]3CCOC3)n2)c1` [Compound 1592, N-[(6-amino-2-pyridyl)sulfonyl]-6-(3-fluoro-5-isobutoxy-phenyl)-2-[(3R)-tetrahydrofuran-3-yl]oxy-pyridine-3-carboxamide] as the molecule, how does the EC30 read?
**A.** +++ (“+++” means <3 uM)

**Q.** How did the EC30 turn out when `CC(C)=C(C)c1ccc(C(=O)NS(=O)(=O)c2cccc(N)n2)c(N2C[C@@H](C)CC2(C)C)n1` [Compound 1510, N-[(6-amino-2-pyridyl)sulfonyl]-6-(1,2-dimethylprop-1-enyl)-2-[(4S)-2,2,4-trimethylpyrrolidin-1-yl]pyridine-3-carboxamide] was run?
**A.** +++ (“+++” means <3 uM)

**Q.** `Cc1cc(C)c(Oc2nc(-c3ccc(CN)cc3)ccc2C(=O)NS(=O)(=O)c2cccc(N)n2)c(C)c1` [Compound 1228, 6-[4-(aminomethyl)phenyl]-N-[(6-amino-2-pyridyl)sulfonyl]-2-(2,4,6-trimethylphenoxy)pyridine-3-carboxamide] was tested. Which EC30 did it give?
**A.** ++ (“++” means between 3 uM and 10 uM)

**Q.** How did the EC30 turn out when `CC(C)COc1cc(F)cc(-c2ccc(C(=O)NS(=O)(=O)c3cccc(N)n3)c(N3CCCC3c3ccccc3)n2)c1` (stereo not shown) [Compound 859, N-[(6-amino-2-pyridyl)sulfonyl]-6-(3-fluoro-5-isobutoxy-phenyl)-2-(2-phenylpyrrolidin-1-yl)pyridine-3-carboxamide] was run?
**A.** +++ (“+++” means <3 uM)

**Q.** How did the EC30 turn out when `Cc1cc(-c2ccc(C(=O)NS(=O)(=O)c3cccnc3N)c(N3C[C@@H](C)CC3(C)C)n2)cnc1OC(C)C` [Compound 1702, N-[(2-amino-3-pyridyl)sulfonyl]-6-(6-isopropoxy-5-methyl-3-pyridyl)-2-[(4S)-2,2,4-trimethylpyrrolidin-1-yl]pyridine-3-carboxamide] was run?
**A.** +++ (“+++” means <3 uM)

**Q.** Which EC30 does the source give for `CC(C)COc1cc(F)cc(-c2ccc(C(=O)NS(=O)(=O)c3ccn[nH]3)c(N3CCCC(C4CC4)C3)n2)c1` (stereo not shown) [Compound 1286, 2-(3-cyclopropyl-1-piperidyl)-6-(3-fluoro-5-isobutoxy-phenyl)-N-(1H-pyrazol-5-ylsulfonyl)pyridine-3-carboxamide] here?
**A.** +++ (“+++” means <3 uM)

**Q.** For `CCOc1cc(F)cc(-c2ccc(C(=O)NS(=O)(=O)c3cccc(N)n3)c(Oc3c(C)cc(C)cc3C)n2)c1` [Compound 1255, N-[(6-amino-2-pyridyl)sulfonyl]-6-(3-ethoxy-5-fluoro-phenyl)-2-(2,4,6-trimethylphenoxy)pyridine-3-carboxamide], which EC30 is on record?
**A.** +++ (“+++” means <3 uM)

**Q.** `CC(C)Oc1ccc(-c2ccc(C(=O)NS(=O)(=O)c3cccc(N)n3)c(N3CCC(C)(C)C3C)n2)cn1` (stereo not shown) [Compound 1327, N-[(6-amino-2-pyridyl)sulfonyl]-6-(6-isopropoxy-3-pyridyl)-2-(2,3,3-trimethylpyrrolidin-1-yl)pyridine-3-carboxamide] was tested. Which EC30 did it give?
**A.** +++ (“+++” means <3 uM)

**Q.** With `Cc1cc(C)c(Oc2nc(C3CCCC3)ccc2C(=O)NS(=O)(=O)c2cccc(N)n2)c(C)c1` [Compound 1280, N-[(6-amino-2-pyridyl)sulfonyl]-6-cyclopentyl-2-(2,4,6-trimethylphenoxy)pyridine-3-carboxamide] as the molecule, how does the EC30 read?
**A.** +++ (“+++” means <3 uM)

**Q.** How did the EC30 turn out when `CC(C)COc1cccc(-c2ccc(C(=O)NS(=O)(=O)c3ccc[nH]c3=O)c(N3CCC(C)CC3)n2)c1` [Compound 958, 6-(3-isobutoxyphenyl)-2-(4-methyl-1-piperidyl)-N-[(2-oxo-1H-pyridin-3-yl)sulfonyl]pyridine-3-carboxamide] was run?
**A.** +++ (“+++” means <3 uM)

**Q.** `COc1cccc(S(=O)(=O)NC(=O)c2ccc(-c3cc(F)cc(OCC(C)C)c3)nc2N2C[C@@H](C)CC2(C)C)c1` [Compound 1452, 6-(3-fluoro-5-isobutoxy-phenyl)-N-(3-methoxyphenyl)sulfonyl-2-[(4S)-2,2,4-trimethylpyrrolidin-1-yl]pyridine-3-carboxamide] was tested. Which EC30 did it give?
**A.** +++ (“+++” means <3 uM)

**Q.** With `Cc1cc(C)c(Oc2nc(C3CCOC(C)(C)C3)ccc2C(=O)NS(=O)(=O)c2cccc(N)n2)c(C)c1` (stereo not shown) [Compound 1466, N-[(6-amino-2-pyridyl)sulfonyl]-6-(2,2-dimethyltetrahydropyran-4-yl)-2-(2,4,6-trimethylphenoxy)pyridine-3-carboxamide] as the molecule, how does the EC30 read?
**A.** ++ (“++” means between 3 uM and 10 uM)

**Q.** With `CC(C)C(C)c1ccc(C(=O)NS(=O)(=O)c2cccnc2N)c(N2C[C@@H](C)CC2(C)C)n1` (stereo partly drawn) [Compound 1911, N-[(2-amino-3-pyridyl)sulfonyl]-6-(1,2-dimethylpropyl)-2-[(4S)-2,2,4-trimethylpyrrolidin-1-yl]pyridine-3-carboxamide] as the molecule, how does the EC30 read?
**A.** +++ (“+++” means <3 uM)

**Q.** For `COc1ccc(-c2ccc(C(=O)NS(=O)(=O)c3cccc(N)n3)c(N3[C@H](C)CC[C@@H]3C)n2)cc1` [Compound 1215, N-[(6-amino-2-pyridyl)sulfonyl]-2-[(2S,5R)-2,5-dimethylpyrrolidin-1-yl]-6-(4-methoxyphenyl)pyridine-3-carboxamide], which EC30 is on record?
**A.** ++ (“++” means between 3 uM and 10 uM)

**Q.** `CC(C)COc1cc(F)cc(-c2ccc(C(=O)NS(=O)(=O)c3ccn[nH]3)c(N3CC(C)CC3(C)C)n2)c1` (stereo not shown) [Compound 904, 6-(3-fluoro-5-isobutoxy-phenyl)-N-(1H-pyrazol-5-ylsulfonyl)-2-(2,2,4-trimethylpyrrolidin-1-yl)pyridine-3-carboxamide] was tested. Which EC30 did it give?
**A.** +++ (“+++” means <3 uM)

**Q.** With `CC(C)COc1cc(F)cc(-c2ccc(C(=O)NS(=O)(=O)c3cccc(N)n3)c(N3CCC(C)CC3)n2)c1` [Compound 991, N-[(6-amino-2-pyridyl)sulfonyl]-6-(3-fluoro-5-isobutoxy-phenyl)-2-(4-methyl-1-piperidyl)pyridine-3-carboxamide] as the molecule, how does the EC30 read?
**A.** +++ (“+++” means <3 uM)

**Q.** Which EC30 does the source give for `C[C@@H]1CN(c2nc(-c3ccc(O)cc3)ccc2C(=O)NS(=O)(=O)c2cccnc2N)C(C)(C)C1` [Compound 1712, N-[(2-amino-3-pyridyl)sulfonyl]-6-(4-hydroxyphenyl)-2-[(4S)-2,2,4-trimethylpyrrolidin-1-yl]pyridine-3-carboxamide] here?
**A.** +++ (“+++” means <3 uM)

**Q.** For `CC1CN(c2nc(-c3cccc(NC(C)C)n3)ccc2C(=O)NS(=O)(=O)c2cccc(N)n2)C(C)(C)C1` (stereo not shown) [Compound 951, N-[(6-amino-2-pyridyl)sulfonyl]-6-[6-(isopropylamino)-2-pyridyl]-2-(2,2,4-trimethylpyrrolidin-1-yl)pyridine-3-carboxamide], which EC30 is on record?
**A.** +++ (“+++” means <3 uM)

**Q.** Which EC30 does the source give for `CC(C)COc1cc(F)cc(-c2ccc(C(=O)NS(=O)(=O)c3cccc(N)n3)c(OCCc3ccccc3)n2)c1` [Compound 1426, N-[(6-amino-2-pyridyl)sulfonyl]-6-(3-fluoro-5-isobutoxy-phenyl)-2-phenethyloxy-pyridine-3-carboxamide] here?
**A.** +++ (“+++” means <3 uM)

**Q.** For `Cc1ccc(Oc2nc3c(cc2C(=O)NS(=O)(=O)c2cc[nH]n2)CCCC3(C)C)c(C)c1` [Compound 1246, 2-(2,4-dimethylphenoxy)-8,8-dimethyl-N-(1H-pyrazol-3-ylsulfonyl)-6,7-dihydro-5H-quinoline-3-carboxamide], which EC30 is on record?
**A.** +++ (“+++” means <3 uM)

**Q.** Which EC30 does the source give for `CC(C)COc1cc(F)cc(-c2ccc(C(=O)NS(=O)(=O)c3cccc(N)n3)c(OCC3(F)COC3)n2)c1` [Compound 1053, N-[(6-amino-2-pyridyl)sulfonyl]-6-(3-fluoro-5-isobutoxy-phenyl)-2-[(3-fluorooxetan-3-yl)methoxy]pyridine-3-carboxamide] here?
**A.** ++ (“++” means between 3 uM and 10 uM)

**Q.** With `CC(C)Oc1ccc(-c2ccc(C(=O)NS(=O)(=O)c3cccc(N)n3)c(N3CCC(OCC4CC4)CC3)n2)cn1` [Compound 884, N-[(6-amino-2-pyridyl)sulfonyl]-2-[4-(cyclopropylmethoxy)-1-piperidyl]-6-(6-isopropoxy-3-pyridyl)pyridine-3-carboxamide] as the molecule, how does the EC30 read?
**A.** ++ (“++” means between 3 uM and 10 uM)

**Q.** Which EC30 does the source give for `CC(C)COc1cc(F)cc(-c2ccc(C(=O)NS(=O)(=O)c3cccc(N)n3)c(N3CCCC34CCCC4)n2)c1` [Compound 926, N-[(6-amino-2-pyridyl)sulfonyl]-2-(9-azaspiro[4.4]nonan-9-yl)-6-(3-fluoro-5-isobutoxy-phenyl)pyridine-3-carboxamide] here?
**A.** +++ (“+++” means <3 uM)

**Q.** `CC(C)Oc1cc(-c2ccc(C(=O)NS(=O)(=O)c3ccc[nH]c3=O)c(N3[C@H](C)CC[C@@H]3C)n2)ccc1Cl` [Compound 1001, 6-(4-chloro-3-isopropoxy-phenyl)-2-[(2S,5R)-2,5-dimethylpyrrolidin-1-yl]-N-[(2-oxo-1H-pyridin-3-yl)sulfonyl]pyridine-3-carboxamide] was tested. Which EC30 did it give?
**A.** ++ (“++” means between 3 uM and 10 uM)

**Q.** With `CCOc1cccc2c1CN(Cc1cc(F)cc(OC)c1)C2(C)C(=O)NS(=O)(=O)c1cccc(F)n1` (stereo not shown) [Compound 1428, 4-ethoxy-2-[(3-fluoro-5-methoxy-phenyl)methyl]-N-[(6-fluoro-2-pyridyl)sulfonyl]-1-methyl-isoindoline-1-carboxamide] as the molecule, how does the EC30 read?
**A.** +++ (“+++” means <3 uM)

**Q.** Which EC30 does the source give for `CC1CN(c2ncccc2C(=O)NS(=O)(=O)c2cccc(Oc3ccccc3C#N)n2)C(C)(C)C1` (stereo not shown) [Compound 1720, N—[[6-(2-cyanophenoxy)-2-pyridyl]sulfonyl]-2-(2,2,4-trimethylpyrrolidin-1-yl)pyridine-3-carboxamide] here?
**A.** +++ (“+++” means <3 uM)

**Q.** How did the EC30 turn out when `CC1CN(c2ncccc2C(=O)NS(=O)(=O)c2cccc(N3CCC(c4ccccc4)CC3)n2)C(C)(C)C1` (stereo not shown) [Compound 1987, N—[[6-(4-phenyl-1-piperidyl)-2-pyridyl]sulfonyl]-2-(2,2,4-trimethylpyrrolidin-1-yl)pyridine-3-carboxamide] was run?
**A.** +++ (“+++” means <3 uM)
